The results in this text go back to the NIST ThermoML archive (doi:10.1016/j.jct.2017.04.017).

Numbers after ± are expanded uncertainties.

The nature of data set [1]: Molar enthalpy of transition or fusion. The following applies: Crystal; DSC.
The conditions of data set [2]: Crystal; DTA.

As for `O=C(Nc1ccccc1-c1ccc(Cl)cc1)c1cccnc1Cl` [Boscalid], the “Molar enthalpy of transition or fusion” value in data set [1] was determined as 8.9 ± 0.335 kcal/mol. Further, the Normal melting temperature in data set [2] worked out at 146.73 ± 0.61 °C.
